{"source": "paper PMC9841529", "about": "(ACS Infectious Diseases, 2022)", "key": {"[1]": {"system": "B. anthracis Sterne 7702 ΔftsX bacilli"}, "[2]": {"system": "B. anthracis Sterne 7702 bacilli (wild-type)"}, "[3]": {"system": "CXCR3-expressing human T-cells", "type": "cell-based"}, "[4]": {"system": "B. anthracis Sterne 7702 spores", "type": "cell-based, Bacillus anthracis"}, "E. faecium AR0575": {"system": "E. faecium AR0575", "type": "cell-based, Enterococcus faecium"}, "A. baumannii AR0304": {"system": "A. baumannii AR0304", "type": "cell-based, Acinetobacter baumannii"}, "[5]": {"system": "mcr-1-positive E. coli FI-4531, E. coli J53 and K. pneumoniae 13883", "type": "cell-based, Escherichia coli; Klebsiella pneumoniae"}, "[6]": {"system": "K. pneumoniae MS84 (disrupted mgrB)", "type": "cell-based, Klebsiella pneumoniae"}, "[7]": {"system": "K. pneumoniae BA2664 (mutated pmrB)", "type": "cell-based, Klebsiella pneumoniae"}, "N. gonorrhoeae H041": {"system": "N. gonorrhoeae H041", "type": "cell-based, Neisseria gonorrhoeae"}, "S. aureus LAC": {"system": "S. aureus LAC", "type": "cell-based, Staphylococcus aureus"}, "N. gonorrhoeae FA1090": {"system": "N. gonorrhoeae FA1090", "type": "cell-based, Neisseria gonorrhoeae"}, "E. cloacae BL36213": {"system": "E. cloacae BL36213", "type": "cell-based, Enterobacter cloacae"}, "[8]": {"details": "pH 7.4"}}, "note": "Entries after “also recorded” stand apart in the source; their conditions may differ. Like-named read-outs stand apart in the source and are kept apart here. Residues, ends and D or L forms follow the SMILES beside them."}
{"molecule": "CC[C@H](C)[C@H](NC(=O)[C@H](CO)NC(=O)[C@@H](NC(=O)[C@H](CS)NC(=O)[C@@H](NC(=O)[C@H](CS)NC(=O)[C@H](CCCNC(=N)N)NC(=O)[C@@H](NC(=O)[C@@H](NC(=O)[C@H](CCCNC(=N)N)NC(=O)[C@H](CO)NC(=O)[C@H](CC(C)C)NC(=O)[C@@H]1CCCN1C(=O)[C@@H](N)C(C)C)[C@@H](C)O)C(C)C)[C@@H](C)O)[C@@H](C)CC)C(N)=O", "note": "[P1] (H-VPLSRTVRCTCISI-NH2)", "values": [{"measurement": "EC50", "setting": "[1]; Sterne 7702 ΔftsX bacilli, 4 h", "value": "53.1 ± 0.8", "unit": "µM"}, {"measurement": "EC50", "setting": "K. pneumoniae BL13802; BL13802, 2 h", "value": "13.4 ± 1.2", "unit": "µM"}, {"measurement": "hemolysis", "setting": "human RBCs", "value": "negligible hemolysis"}, {"measurement": "EC50", "setting": "[2]; Sterne 7702 bacilli (wild-type, 4 h)", "value": "18.1 ± 0.3", "unit": "µM"}, {"measurement": "percentage of dead cells", "setting": "primary human T-cells", "value": "less than 5%"}]}
{"molecule": "CXCL10", "values": [{"measurement": "chemotactic index (CI)", "setting": "[3]", "value": "approximately 6"}]}
{"molecule": "EIIATMKKKGEKRCL [P5]", "values": [{"measurement": "T-cell migration", "setting": "[3]", "value": "did not elicit T-cell migration"}, {"measurement": "decrease of heat-treated cfu counts versus initial spore inoculum", "setting": "[4]", "value": "~200", "unit": "fold"}, {"measurement": "increase of cfu counts without heat treatment versus initial spore inoculum", "setting": "[4]", "value": "more than 10 fold"}, {"measurement": "hemolysis", "setting": "human RBCs", "value": "negligible hemolysis"}, {"measurement": "percentage of dead cells", "setting": "primary human T-cells", "value": "less than 5%"}]}
{"molecule": "KNLLKAVSKERSKRSP [P8]", "values": [{"measurement": "% survival (cfu/ml)", "setting": "K. pneumoniae BL13802", "value": "efficiently killed K. pneumoniae"}]}
{"molecule": "Melittin [reference compound]", "values": [{"measurement": "hemolysis", "setting": "human RBCs", "value": "high levels of hemolysis"}]}
{"molecule": "PESKAIK(S5A)LLK(S5A)VSKERSKRSP (sidechain bridge or staple) [stapled peptide P9]", "values": [{"measurement": "viability of ungerminated spores compared to the initial inoculum", "setting": "[4]", "value": "modest reductions in the viability of ungerminated spores"}, {"measurement": "EC50", "setting": "[1]", "value": "9.6 ± 1", "unit": "µM"}, {"measurement": "hemolysis", "setting": "human RBCs", "value": "neither pre-stapled nor stapled peptide P9 exerted hemolytic effects"}, {"measurement": "bacterial killing (in words)", "setting": "E. faecium AR0575", "value": "particularly susceptible"}, {"measurement": "bacterial killing (in words)", "setting": "A. baumannii AR0304", "value": "particularly susceptible"}, {"measurement": "bacterial killing (in words)", "setting": "[5]", "value": "killed colistin-resistant K. pneumoniae and E. coli strains"}, {"measurement": "bacterial killing (in words)", "setting": "[6]", "value": "killed colistin-resistant K. pneumoniae"}, {"measurement": "bacterial killing (in words)", "setting": "[7]", "value": "killed colistin-resistant K. pneumoniae"}, {"measurement": "bacterial killing (in words)", "setting": "N. gonorrhoeae H041", "value": "particularly susceptible"}, {"measurement": "bacterial killing (in words)", "setting": "S. aureus LAC", "value": "particularly susceptible"}, {"measurement": "EC50", "setting": "[2]", "value": "8.5 ± 0.9", "unit": "µM"}, {"measurement": "EC50", "setting": "[2]; read-out: EC50 values (as stated in running text)", "value": "4 to 5", "unit": "µM"}, {"measurement": "cytotoxic effects (dead cells)", "setting": "primary human T-cells", "value": "greatly reduced"}, {"measurement": "percentage of dead cells", "setting": "primary human T-cells", "value": "~45", "unit": "%"}, {"measurement": "bacterial killing (in words)", "setting": "N. gonorrhoeae FA1090", "value": "particularly susceptible"}]}
{"molecule": "PESKAIK(S5A)LLK(S5A)VSKERSKRSP [pre-stapled peptide P9]", "values": [{"measurement": "EC50", "setting": "[1]", "value": "5 ± 1.2", "unit": "µM"}, {"measurement": "EC50", "setting": "[2]", "value": "4.3 ± 0.4", "unit": "µM"}]}
{"molecule": "PESKAIKNLLKAVSKERSKRSP [P9]", "values": [{"measurement": "% survival (cfu/ml)", "setting": "K. pneumoniae BL13802", "value": "efficiently killed K. pneumoniae"}, {"measurement": "bacterial survival (RFU)", "setting": "K. pneumoniae BL13802", "value": "abolished the ability"}, {"measurement": "bacterial killing (in words)", "setting": "E. cloacae BL36213", "value": "lost its capacity to kill any of the isolates examined; also recorded: except E. cloacae"}, {"measurement": "hemolysis", "setting": "human RBCs", "value": "negligible hemolysis"}, {"measurement": "bacterial killing (in words)", "setting": "E. faecium AR0575", "value": "lost its capacity to kill any of the isolates examined; also recorded: little to no effect on the viability"}, {"measurement": "bacterial killing (in words)", "setting": "[5]", "value": "undiminished"}, {"measurement": "bacterial killing (in words)", "setting": "[6]", "value": "but not peptide P9"}, {"measurement": "secondary structure content: antiparallel β-sheet", "setting": "[8]", "value": 12, "unit": "%"}, {"measurement": "secondary structure content: turn", "setting": "[8]", "value": 18, "unit": "%"}, {"measurement": "secondary structure content: α-helix", "setting": "[8]", "value": 35, "unit": "%"}, {"measurement": "bacterial killing (in words)", "setting": "[7]", "value": "but not peptide P9"}, {"measurement": "bacterial killing (in words)", "setting": "N. gonorrhoeae H041", "value": "reductions in bacterial viability were more modest"}, {"measurement": "bacterial killing (in words)", "setting": "S. aureus LAC", "value": "lost its capacity to kill any of the isolates examined; also recorded: little to no effect on the viability"}, {"measurement": "percentage of dead cells", "setting": "primary human T-cells", "value": "less than 5%"}, {"measurement": "bacterial killing (in words)", "setting": "N. gonorrhoeae FA1090", "value": "reductions in bacterial viability were more modest"}]}
{"molecule": "TISVCPTLRRIVSC [P1scram]", "values": [{"measurement": "bacterial viability, % survival (RFU)", "setting": "[2]", "value": "abolished antimicrobial activity"}]}
